Data: patent publication US9034916B2, “Pharmaceutical composition for the prevention or treatment of a neurodegenerative disease, comprising a Daphne genkwa extract or a compound isolated therefrom” (Korea Research Institute of Bioscience and Biotechnology, priority 2011, dated 2015)

Target: T1, Nurr1 protein (Homo sapiens, UniProt P43354)
T1 construct: three kinds of plasmid DNAs, including a DNA comprising Nurr1-LBD and a DNA having β-galactosidase, were transfected into BE(2)C cells; expressed in transfected cells; host or cells: BE(2)C human neuroblastoma cells
Assay: Nurr1 luciferase reporter assay in BE(2)C cells transfected with Nurr1-LBD
Type: cell-based
Method: A gene comprising eight repeats of a nucleotide sequence (5′-CTCGGAGGACAGTACTCCG-3, SEQ ID NO: 1) to which GLA4 gene can bind was linked to the reporter gene luciferase to synthesize a vector. Then, three kinds of plasmid DNAs, including a DNA comprising Nurr1-LBD and a DNA having β-galactosidase, were transfected into BE(2)C cells, and after 6 hours, the cells were treated with 1-200 ppm of the Daphne genkwa extract. The treated cells were incubated in a 5% CO2 incubator at 37° C. for 20 hours, and then subjected to a luciferase assay (FIG. 1).
FIG. 1 is a graphic diagram showing the results of a luciferase assay conducted to examine the change in Nurr1 protein activity as a function of the concentration of the Daphne genkwa extract. As a control, 0.1% DMSO was used, and the increase in activity was expressed as folds of the activity of the control. […]
The effects of the Daphne genkwa extract fractions, obtained using various solvents in Example 2, on Nurr1 protein activity, were analyzed according to a method similar to the method described in Example 3. […]
According to a method similar to the method described in Example 3, the concentration dependences of the effects of genkwanine N and yuanhuacine on the activity of Nurr1 protein were analyzed, and the results of the analysis are shown in FIG. 5.

T1 sequence (P43354 360-595 limits assumed): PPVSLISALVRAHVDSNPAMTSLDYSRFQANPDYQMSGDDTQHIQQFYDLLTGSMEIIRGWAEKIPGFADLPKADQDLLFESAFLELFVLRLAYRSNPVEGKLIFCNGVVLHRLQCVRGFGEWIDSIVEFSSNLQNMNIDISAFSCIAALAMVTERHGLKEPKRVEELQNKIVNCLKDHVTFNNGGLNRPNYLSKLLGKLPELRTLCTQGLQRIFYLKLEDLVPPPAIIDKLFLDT

| Structure (SMILES) | increase of activity of Nurr1 protein (16 nM (corresponding to 0.01 ppm)) [%] | increase of activity of Nurr1 protein (15 nM (corresponding to 0.01 ppm)) [%] |
| --- | --- | --- |
| C=C(C)[C@]12C[C@@H](C)[C@@]34OC(c5ccccc5)(O[C@@H]1[C@@H]3[C@@H]1O[C@]1(CO)[C@@H](O)[C@@]1(O)[C@H]4C[C@H](C)[C@@H]1OC(=O)c1ccccc1)O2 [genkwanine N] | 60 | – |
| C=C(C)[C@@]12OC3(/C=C/C=C/CCCCC)O[C@@H]1[C@@H]1[C@@H]4O[C@]4(CO)[C@@H](O)[C@]4(O)C(=O)C(C)=C[C@H]4[C@@]1(O3)[C@H](C)[C@H]2OC(=O)c1ccccc1 [yuanhuacine] | – | 70 |
